Measured values published in publication PMC11118710, “GLP-1 and Its Derived Peptides Mediate Pain Relief Through Direct TRPV1 Inhibition Without Affecting Thermoregulation” (Research Square, 2024).

Key:
[1] = acute intraperitoneal glucose tolerance test (IPGTT), blood glucose; assay type: in vivo, mouse (wild-type); conditions: 10 μg/kg i.p. 15 min before glucose 2 g/kg i.p.
Experimental: Licking time was recorded for 5 min after CAP injection in each group. Mechanical allodynia and thermal hyperalgesia were evaluated in separate experiments in a time-dependent manner. Mechanical allodynia was assessed using von Frey filaments (NC12775–99; North Coast Medical, CA). The 50% PWT was calculated using the up-down method. Thermal hyperalgesia was assessed by recording PWL using the Hargreaves radiant heat apparatus (IITC Life Sciences, Woodland Hills, CA). A cutoff value of 20 s was used to prevent tissue damage. […] The acute IPGTT was performed in mice aged 8 weeks. Baseline blood glucose levels were measured and mice were intraperitoneally injected with 200 μL of vehicle, exendin 20–29 (10 μg/kg), and exendin-4 (10 μg/kg) in wild-type mice (n = 6). After 15 min, the mice were challenged with glucose (2.0 g/kg body weight). Blood glucose levels were measured using an Accu-Chek Performa glucometer (Roche, Mannheim, Germany).

[2] = test system: TRPV1 (mouse DRG neurons); test: Ca2+ imaging, CAP-induced responses in mouse DRG neurons; assay type: cell-based; conditions: 100 nM CAP, Fura-2 340/380 ratio
Experimental: Cells were mechanically dissociated by gentle pipetting and placed on glass coverslips coated with poly-D-lysine.
At room temperature, Ca^2+ imaging was conducted in mouse DRG, HEK293T, and hTRPV1-expressing CHO K1 cells. […] The cells were then rinsed three times with the medium and incubated for 30 min, following which they were placed on the stage of an inverted microscope (BX51W1; Olympus, Tokyo, Japan) and continuously superfused at a flow speed of 1 mL/min with a bath solution containing 140 mM NaCl, 5 mM KCl, 1 mM CaCl2, 2 mM MgCl2, 10 mM HEPES, and 10 mM glucose, adjusted to pH 7.4 with NaOH. […] The fluorescence 340/380 ratio was measured using digital video microfluorometry with an intensified camera (OptiMOS; QImaging, Surrey, Canada) coupled to the microscope. Data were analyzed using SlideBook 6 (Intelligent Imaging Innovations, Denver, CO). At the end of the experiment, cells were identified based on their response to high concentrations of KCl.

[3] = 10 μg/kg; cited from earlier work
Experimental: To determine the potential effects of exendin 20–29 on GLP-1R and glucose regulation, we performed an acute intraperitoneal glucose tolerance test (IPGTT) in 8-week-old mice. […] After 15 min of exendin 20–29 or exendin-4 administration, a glucose solution (2 g/kg) was intraperitoneally injected (at 0 min; Fig. 8f).

rat TRPV1 = test: Ca2+ imaging, CAP-induced responses in HEK293T cells transfected with rat TRPV1; assay type: cell-based; conditions: no GLP-1R expression, 100 nM peptide, 100 nM CAP, vs control CAP
Experimental: DRG cells were then grown in a neurobasal-defined medium supplemented with 10% fetal bovine serum (FBS; Gibco, Waltham, MA), 2% B27 supplement (Invitrogen, Carlsbad, CA), and 1% penicillin/streptomycin for 24 h before experiments. Human TRPV1 (hTRPV1)-expressing CHO K1 cells were cultured using Dulbecco’s modified Eagle’s medium (DMEM) containing 10% FBS, 1% penicillin/streptomycin, and 800 μg/mL geneticin in an incubator with 5% CO2 at 37°C. HEK293 and HEK293T cells were also cultured in the same DMEM but without geneticin. Rat TRPV1 plasmids were labeled with a green fluorescent protein to indicate subsequent calcium imaging. cDNA constructs of rat TRPV1 were transiently transfected into cells using Lipofectamine 2000 (Invitrogen). Ca^2+ imaging was performed one day after transient transfection.
At room temperature, Ca^2+ imaging was conducted in mouse DRG, HEK293T, and hTRPV1-expressing CHO K1 cells. Cells on poly-D-lysine-coated coverslips were loaded with 2 μM Fura-2 AM (Thermo Fisher Scientific, Waltham, MA) at 37°C for 40 min in DMEM. The cells were then rinsed three times with the medium and incubated for 30 min, following which they were placed on the stage of an inverted microscope (BX51W1; Olympus, Tokyo, Japan) and continuously superfused at a flow speed of 1 mL/min with a bath solution containing 140 mM NaCl, 5 mM KCl, 1 mM CaCl2, 2 mM MgCl2, 10 mM HEPES, and 10 mM glucose, adjusted to pH 7.4 with NaOH. Using illumination with a 175-W xenon arc lamp, excitation wavelengths (340/380 nm) were selected using a Lambda DG-4 monochromator wavelength changer (Shutter Instrument, Novato, CA). The fluorescence 340/380 ratio was measured using digital video microfluorometry with an intensified camera (OptiMOS; QImaging, Surrey, Canada) coupled to the microscope. Data were analyzed using SlideBook 6 (Intelligent Imaging Innovations, Denver, CO). At the end of the experiment, cells were identified based on their response to high concentrations of KCl.

In the case of exendin-4, the “blood glucose level in IPGTT” value [1] is reported as “significantly lowered the blood glucose level from 15 to 120 min”, the “CAP-induced Ca2+ responses, significance” value ([2]; vs control CAP) is reported as “****p<.0001, compared with control CAP” and the “reduction of CAP-induced Ca2+ responses” value ([2]; 100 nM peptide pretreatment, room temperature) is reported as 72.2%. The blood glucose levels [3] was “lowers blood glucose levels” and the “CAP-induced TRPV1 calcium responses” value (rat TRPV1) was “****p <.0001, compared with each control CAP”.
